Assay results as given in patent US11959929B2, “Method of quantifying lysergic acid diethylamide (LSD) and 2,3-dihydro-3-hydroxy-2-oxo lysergide (O-H-LSD) in human plasma” (Universitatsspital Basel, priority 2020, dated 2024).
Where “and” joins values, the source holds several entries; their conditions need not be identical. Identical values can stand only once.

Key:
[1] = Clinical application: plasma concentration-time profile of LSD and O-H-LSD after a single oral 5 μg LSD dose in healthy volunteers; type: in vivo, human; settings: three healthy volunteers
Description: To examine the application of the developed method, LSD and O-H-LSD concentrations were quantified in plasma samples of three healthy volunteers receiving a single oral dose of 5 μg. This corresponds to a very low LSD dose, used in LSD microdosing clinical trials (Holze et al., 2021a). The study was conducted in accordance with the Declaration of Helsinki and approved by the Medical Ethics Committee of the Academic Hospital of Maastricht and Maastricht University. The use of LSD in humans was authorized by the Dutch Drug Enforcement Administration. All volunteers provided written informed consent prior to study participation. To establish concentration time profiles, blood samples were collected in lithium heparin coated tubes at the following time points: 0, 0.5, 1, 1.5, 2, 3, 4, 6 after treatment. Blood samples were centrifuged, and plasma was frozen at −20° C. until analysis.
The application of the method was assessed by analyzing the PK of LSD and O-H-LSD in three healthy volunteers treated with an oral dose of 5 μg LSD base (FIG. 5). An oral dose of 5 μg LSD base in ethanol (Holze et al., 2021) was administered to three healthy volunteers. Plasma concentrations of LSD and O-H-LSD were quantified before and up to six hours post-treatment. […] Mean values and the standard deviations are illustrated.
The maximal plasma level of LSD and O-H-LSD was on average 178 pg/ml (SD: 30.6 pg/ml) and 10.4 pg/ml (SD: 2.59 pg/ml), respectively. LSD reached Tmax approximately after 1 hour post-treatment, whereas O-H-LSD peaked after 3 hours. The LSD concentrations measured after a dose of only 5 μg were approximately 7 to 18 times higher than the methods limit of quantification. Thus, the PK of LSD could straightforwardly be established also for very low so-called microdoses (Kuypers et al., 2019). In the case of O-H-LSD, a larger amount of plasma sample was required to determine the plasma concentration time profile after a dose of 5 μg. Three times more plasma was utilized (150 instead of 50 μl), which was extracted as outlined above using however three-fold more acetonitrile for the extraction. Sensitivity was increased by evaporating the extract and reconstituting the residue in a mixture of 150 μl of mobile phase A and mobile phase B (9/1 v/v). […] In future, it will also be considered to inject a larger amount of extract, which is in a first step retained and concentrated on a trapping column. In a second step, the direction of the flow is inverted and so that the sample can be loaded and eluted on the analytical column. This column switching procedure, will increase the sensitivity in the event that the sample can be retained on the trap column. Importantly, the time-consuming solvent evaporation step can thereby be avoided.

[2] = Freeze/thaw stability tests in human plasma (three cycles, about −20° C.); type: physicochemical; settings: for Change in concentration [%]: 3 F/T cycles vs Baseline; for Accuracy: single QC replicate
Excerpt: (§1) Each analyte had to be stable in human plasma for at least three freeze-thaw cycles (for repeated sample preparations) and at ambient temperature for at least eight hours (maximal duration of sample preparation). Measured samples should be stable for a second injection when the first analytical run was not valid. The analytes had to be stable in the matrix at the intended storage temperatures and study duration.
(§2) An analyte was considered stable at one of the above tests when no increase or decrease of the analyte concentration of more than 15% for the mean of at least three analyzed QC samples at low, medium and at high concentration was observed.
Seven of each LLOQ, QCLOW, QCMID, QCHIGH, and ULOQ sample in human plasma were stored at about −20° C. for at least 24 hours and thawed unassisted at ambient temperature. When completely thawed, the samples were refrozen for at least 12 hours under the same conditions. The freeze-thaw cycle was repeated two more times. After the third cycle the samples were worked up and analyzed. The concentrations in the frozen and thawed samples were compared with freshly processed QC samples. Concentrations were calculated based on two freshly prepared CALs measured at the beginning and the other at the end of the validation run.

[3] = Reinjection reproducibility of worked-up plasma samples (overnight at 10° C. in autosampler; 1 week at −20° C.); type: physicochemical, human; settings: for Change in concentration: 1 night at 10° C. in the autosampler vs Baseline; for Change in concentration [%]: 8 days at −20° C. vs Baseline; for Accuracy: single QC replicate
Excerpt: as §1, §2
Worked-up and measured Cal and QC samples (prepared in human plasma) of a valid run were repeatedly analyzed. Reinjection was performed after overnight storage at 10° C. (autosampler) and after 1-week storage at −20° C. The run was checked according to the acceptance criteria for validation runs. The calculated mean values for QC samples were compared between the original and reinjected run.

[4] = QCHIGH: 1000 pg/ml, 3 F/T cycles
[5] = ULOQ: 10000 pg/ml, 3 F/T cycles
[6] = LLOQ: 10 pg/ml, reinjection after 8 days at −20° C.
[7] = QCHIGH: 1000 pg/ml, reinjection after 8 days at −20° C.
[8] = QCLOW: 25 pg/ml, reinjection after 8 days at −20° C.
[9] = QCMID: 100 pg/ml, reinjection after 8 days at −20° C.
[10] = ULOQ: 10000 pg/ml, reinjection after 8 days at −20° C.

CCN(CC)C(=O)[C@@H]1C=C2c3cccc4[nH]cc(c34)C[C@H]2N(C)C1 [LSD, Lysergic acid diethylamide]
Tmax ([1]; human, 5 ug, single oral dose of 5 μg LSD base, read-out: Tmax (time of peak plasma level post-treatment)): ~1 h
maximal plasma level (average) ([1]; single oral dose of 5 μg LSD base in ethanol, LC-MS/MS, O-H-LSD measured as metabolite using 150 μl plasma): 178 pg/mL
Accuracy, Intra-assay Mean ([2]; LLOQ: 10 pg/ml, 3 F/T cycles): 83.7%
Change in concentration [%] ([2]; LLOQ: 10 pg/ml): −8.83%
Accuracy ([2]; LLOQ: 10 pg/ml, 3 F/T cycles): 81.9% and 75.0* % and 81.7% and 84.7% and 79.8* % and 81.8% and 88.5%
Accuracy, Intra-assay Mean ([2]; LLOQ: 10 pg/ml, Baseline): 91.8%
Accuracy ([2]; LLOQ: 10 pg/ml, Baseline): 96.6% and 95.7% and 83.2%
Accuracy, Intra-assay Mean [2, 4]: 96.5%
Change in concentration [%] ([2]; QCHIGH: 1000 pg/ml): 0.647%
Accuracy [2, 4]: 96.4% and 96.2% (2×) and 96.9% and 96.7% and 94.6% and 98.3%
Accuracy, Intra-assay Mean ([2]; QCHIGH: 1000 pg/ml, Baseline): 95.9%
Accuracy ([2]; QCHIGH: 1000 pg/ml, Baseline): 96.9% and 96.4% and 94.3%
Accuracy, Intra-assay Mean ([2]; QCLOW: 25 pg/ml, 3 F/T cycles): 96.7%
Change in concentration [%] ([2]; QCLOW: 25 pg/ml): 4.44%
Accuracy ([2]; QCLOW: 25 pg/ml, 3 F/T cycles): 95.2% and 102% and 101% and 91.5% and 98.8% and 93.6% and 94.9%
Accuracy, Intra-assay Mean ([2]; QCLOW: 25 pg/ml, Baseline): 92.6%
Accuracy ([2]; QCLOW: 25 pg/ml, Baseline): 94% and 93.4% and 90.5%
Accuracy, Intra-assay Mean ([2]; QCMID: 100 pg/ml, 3 F/T cycles): 98.5%
Change in concentration [%] ([2]; QCMID: 100 pg/ml): 1.03%
Accuracy ([2]; QCMID: 100 pg/ml, 3 F/T cycles): 99.2% and 97.9% and 99.5% and 99.6% and 94.9% and 98% and 100%
Accuracy, Intra-assay Mean ([2]; QCMID: 100 pg/ml, Baseline): 97.5%
Accuracy ([2]; QCMID: 100 pg/ml, Baseline): 101% and 94.3% and 97.4%
Accuracy, Intra-assay Mean [2, 5]: 95.7%
Change in concentration [%] ([2]; ULOQ: 10000 pg/ml): −0.9%
Accuracy [2, 5]: 97.8% and 94.3% and 94% and 96.4% and 99.2% and 93% and 95.2%
Accuracy, Intra-assay Mean ([2]; ULOQ: 10000 pg/ml, Baseline): 96.6%
Accuracy ([2]; ULOQ: 10000 pg/ml, Baseline): 94.7% and 94.9% and 100%
Change in plasma concentration following three freeze/thaw cycles ([2]; human plasma QC samples, −20° C., three freeze/thaw cycles, vs freshly processed QC): ≤ 8.83%
Change in concentration ([3]; LLOQ: 10 pg/ml): 1.09%
Change in concentration ([3]; QCHIGH: 1000 pg/ml): −0.451%
Change in concentration ([3]; QCLOW: 25 pg/ml): −0.0195%
Change in concentration ([3]; QCMID: 100 pg/ml): 2.3%
Change in concentration ([3]; ULOQ: 10000 pg/ml): 0.383%
Change in concentration [%] ([3]; LLOQ: 10 pg/ml): −1.26%
Accuracy, Intra-assay Mean ([3]; LLOQ: 10 pg/ml, Baseline): 96.6%
Accuracy ([3]; LLOQ: 10 pg/ml, Baseline): 92.5% and 95% and 76.3* % and 91.3% and 98% and 109% and 93.7%
Accuracy, Intra-assay Mean [3, 6]: 95.4%
Accuracy [3, 6]: 104% and 97.5% and 86% and 95.3% and 100% and 94.7% and 90.3%
Change in concentration [%] ([3]; QCHIGH: 1000 pg/ml): −0.333%
Accuracy, Intra-assay Mean ([3]; QCHIGH: 1000 pg/ml, Baseline): 100%
Accuracy ([3]; QCHIGH: 1000 pg/ml, Baseline): 96.5% and 99.5% and 97.7% and 101% (3×) and 103%
Accuracy, Intra-assay Mean [3, 7]: 99.7%
Accuracy [3, 7]: 101% (2×) and 98.8% and 98.9% and 99.9% and 99.1% and 99.6%
Change in concentration [%] ([3]; QCLOW: 25 pg/ml): −0.948%
Accuracy, Intra-assay Mean ([3]; QCLOW: 25 pg/ml, Baseline): 101%
Accuracy ([3]; QCLOW: 25 pg/ml, Baseline): 101% (2×) and 104% and 97.9% and 102% and 103% and 99.5%
Accuracy, Intra-assay Mean [3, 8]: 100%
Accuracy [3, 8]: 95.5% and 102% and 107% and 96.4% and 106% and 92% and 103%
Change in concentration [%] ([3]; QCMID: 100 pg/ml): 1.02%
Accuracy, Intra-assay Mean ([3]; QCMID: 100 pg/ml, Baseline): 101%
Accuracy ([3]; QCMID: 100 pg/ml, Baseline): 101% (4×) and 102% and 96.6% and 107%
Accuracy, Intra-assay Mean [3, 9]: 102%
Accuracy [3, 9]: 101% and 103% (2×) and 102% (2×) and 99.9% and 105%
Change in concentration [%] ([3]; ULOQ: 10000 pg/ml): −1.85%
Accuracy, Intra-assay Mean ([3]; ULOQ: 10000 pg/ml, Baseline): 97.2%
Accuracy ([3]; ULOQ: 10000 pg/ml, Baseline): 97.9% and 97.3% and 98.1% and 96.5% and 97.1% and 98.7% and 95%
Accuracy, Intra-assay Mean [3, 10]: 95.4%
Accuracy [3, 10]: 97.4% and 96.6% and 95.2% and 92.9% and 95.1% and 96.4% and 94.2%
Deviations of the means of the QCs of the two runs (reinjection) after 8 days at −20° C. ([3]; worked-up human plasma samples, 8 days at −20° C.): −1.85% to +1.02
Deviations of the means of the QCs of the two runs (reinjection) after overnight storage at 10° C. ([3]; worked-up human plasma samples, overnight at 10° C. in the autosampler): −0.451% to +2.3
